Test results reported in patent US11952365B2, “Anti-viral compounds” (Aligos Therapeutics, Inc., priority 2020, dated 2024).
Where two headings read alike, the source gives them in different places.

Assays:
in vitro [1] = conditions: human
[2] = test system: human beta-coronavirus OC43; assay: microbe, parasite or virus in culture; type: cell-based; conditions: Betacoronavirus 1, OC43, HeLa, 144 h, OC43 in HeLa cells, 6 days at 33° C., class symbols; read-out: EC50
in vitro [3] = conditions: African green monkey, VeroE6 + CP (CC50), Vero E6-eGFP cells with CP-100356, absence of virus, MTS
3CLpro = 3CLpro (Severe acute respiratory syndrome coronavirus 2, UniProt P0DTD1); assay: SARS-CoV-2 3CLpro protease assay (duplex, SAMDI-MS); type: biochemical; design: For the duplex assay, 3CLpro and HRV3C was added; conditions: 3CLpro, 30 mins preincubation, class symbols; read-out: SARS-Cov-2 IC50
[4] = test system: SARS-CoV-2-GHB-03021/2020; assay: microbe, parasite or virus in culture; type: cell-based; conditions: Severe acute respiratory syndrome coronavirus 2, Vero C1008, 96 h; read-out: VeroE6 + CP (EC50)
[5] = test system: SARS-CoV-2-GHB-03021/2020; assay: SARS-CoV-2 Infection Model in Huh7 Cells; type: cell-based; conditions: Severe acute respiratory syndrome coronavirus 2, Huh-7, 96 h, SARS-CoV-2, day 4 p.i., MTS, class symbols
HRV3C = HRV3C (Human rhinovirus 14, UniProt P03303); assay: HRV3C protease assay (duplex, SAMDI-MS); type: biochemical, HRV; conditions: 30 mins preincubation
Outline: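 Readout is SAMDI mass spectrometry: biotinylated substrates, products and internal standards were immobilized on neutravidin monolayers and product formation taken as the AUC ratio to internal standard. Reactions ran 30 min at ambient temperature after 30 min compound preincubation, in duplex with 3CLpro. IC50 values came from four-parameter curve fitting.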

human cathepsin L = biological target: T1, human cathepsin L (Homo sapiens, UniProt P07711); assay: cathepsin L assay; type: biochemical; conditions: 10 pM human cathepsin L, Z-FR-AMC 2 μM
T1 construct: purchased R&D Systems
Outline: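 Reactions began by adding 2 μM (final) Z-FR-AMC substrate to 10 pM human cathepsin L that had been preincubated 30 min with inhibitor. Kinetic AMC fluorescence at 355/460 nm over 30 min at 2-min intervals; four-parameter fitting gave IC50 values.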

[6] = Cytotoxicity plates without OC43 virus (cell-titer-glo); type: cell-based, human; conditions: human; HeLa cells without OC43 virus, class symbols
Outline: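 Run as a virus-free counterpart of the OC43 cytopathic-effect assay. Attached HeLa cells received compound dilutions in EMEM with 2% FBS and were kept 6 days at 33 °C. Cell viability was then measured by CellTiter-Glo luminescence.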

[7] = HRV3C, class symbols, read-out: HRV IC50
[8] = HRV3C, bound, read-out: HRV IC50

Compound | CC50 (in vitro [1]) [µM] | EC50 [2] [µM] | CC50 (in vitro [3]; numeric bounds) [µM] | IC50 (3CLpro) [µM] | EC50 [4] [µM] | EC50 [5] [µM] | IC50 (HRV3C; [7]) [µM] | IC50 (human cathepsin L; class symbols) [µM] | CC50 at 6 days [6] [µM] | IC50 (HRV3C; [8]) [µM] | IC50 (HRV3C; HRV IC50, HRV3C, bound) [µM] | CC50 (in vitro [3]; class symbols) [µM] | IC50 (human cathepsin L; bound) [µM]
COc1cccc2[nH]c(C(=O)N3C[C@]4(C[C@H]3C(=O)N[C@@H](C[C@@H]3CCCNC3=O)C(=O)C(=O)NC(C)C)CC4(F)F)cc12 [Compound 34] | > 100 | 0.1 to 1 | > 100 | 0.02 to 0.2 | 1 to 10 | 10 to 100 | 0.2 to 2 | ≥ 10 | > 10 |  |  |  | 
O=C(NCc1ccccc1)C(=O)[C@H](C[C@@H]1CCNC1=O)NC(=O)[C@@H]1[C@H]2CCC[C@H]2CN1C(=O)c1nc2ccccc2[nH]1 [Compound 35] | > 100 | 1 to 10 | > 100 | 0.02 to 0.2 | 10 to 100 | 10 to 100 | 2 to 20 | ≥ 10 | > 10 |  |  |  | 
COc1cccc2[nH]c(C(=O)N3C[C@@H]4CCC[C@@H]4[C@H]3C(=O)NC(C[C@@H]3CCNC3=O)C(=O)C(=O)NCc3ccccc3)nc12 (stereo partly drawn) [Compound 36, 3-[[(1S,3aR,6aS)-2-(4-methoxy-1H-1,3-benzodiazole-2-carbonyl)-hexahydro-1H-cyclopenta[c]pyrrol-1-yl]formamido]-N-benzyl-2-oxo-4-[(3S)-2-oxopyrrolidin-3-yl]butanamide] | > 100 | 10 to 100 | > 100 | 0.02 to 0.2 | 10 to 100 | 10 to 100 | 20 to 100 | ≥ 10 | > 10 |  |  |  | 
COc1cccc2[nH]c(C(=O)N3C[C@]4(C[C@H]3C(=O)NC(C[C@@H]3CCCNC3=O)C(=O)C(=O)NC3CC3)CC4(F)F)cc12 (stereo partly drawn) [Compound 38, N-cyclopropyl-3-{[(3S,6S)-1,1-difluoro-5-(4-methoxy-1H-indole-2-carbonyl)-5-azaspiro[2.4]heptan-6-yl]formamido}-2-oxo-4-[(3S)-2-oxopiperidin-3-yl]butanamide] | > 100 | 0.1 to 1 | > 100 | 0.02 to 0.2 | 1 to 10 | 1 to 10 | 0.2 to 2 | < 0.1 | > 10 |  |  |  | 
COc1cccc2[nH]c(C(=O)N3C[C@]4(C[C@H]3C(=O)N[C@@H](C[C@@H]3CCNC3=O)C(=O)CO)CC4(F)F)cc12 [Compound 39] | > 100 | 0.1 to 1 | > 100 | 0.02 to 0.2 | 1 to 10 | 1 to 10 |  | ≥ 10 | > 10 | > 10 |  |  | 
O=C(NCc1ccccc1)C(=O)C(C[C@@H]1CCNC1=O)NC(=O)[C@@H]1C[C@@H](C2CC2)CN1C(=O)c1cc2ccccc2[nH]1 (stereo partly drawn) [Compound 40, N-benzyl-3-{[(2S,4S)-4-cyclopropyl-1-(1H-indole-2-carbonyl)pyrrolidin-2-yl]formamido}-2-oxo-4-[(3S)-2-oxopyrrolidin-3-yl]butanamide] | > 10 | 0.1 to 1 | > 100 | 0.2 to 2 | 1 to 10 | 1 to 10 | 0.2 to 2 | 0.1 to 1 | > 10 |  |  |  | 
COc1cccc2[nH]c(C(=O)N3CC4(CC4)C[C@H]3C(=O)N[C@@H](C[C@@H]3CCCNC3=O)C(=O)CO)cc12 [Compound 42, (S)—N—((S)-4-hydroxy-3-oxo-1-((S)-2-oxopiperidin-3-yl)butan-2-yl)-5-(4-methoxy-1H-indole-2-carbonyl)-5-azaspiro[2.4]heptane-6-carboxamide] | > 100 | 0.1 to 1 | > 100 | 0.02 to 0.2 | 1 to 10 | 1 to 10 | 2 to 20 | ≥ 10 | > 10 |  |  |  | 
COc1cccc2[nH]c(C(=O)N3C[C@H]4[C@@H]([C@H]3C(=O)N[C@@H](C[C@@H]3CCNC3=O)C(=O)CO)C4(C)C)cc12 [Compound 43] | > 100 | 0.1 to 1 | > 100 | 0.02 to 0.2 | 1 to 10 | 1 to 10 |  | ≥ 10 | > 10 |  | > 10 |  | 
COc1cccc2[nH]c(C(=O)N3CCC4(CC4)C[C@H]3C(=O)N[C@@H](C[C@@H]3CCCNC3=O)C(=O)CO)cc12 [Compound 44] | > 10 | 1 to 10 | > 100 | 0.02 to 0.2 | 10 to 100 | 10 to 100 |  | ≥ 10 | > 10 |  | > 10 |  | 
COc1cccc2[nH]c(C(=O)N3C[C@H](C(F)(F)F)C[C@H]3C(=O)N[C@@H](C[C@@H]3CCCNC3=O)C(=O)COCc3ccccc3)cc12 [Compound 45A] | > 10 | 0.1 to 1 |  | 0.02 to 0.2 | 1 to 10 | 1 to 10 | 2 to 20 | ≥ 10 | > 10 |  |  | > 10 | 
COc1cccc2[nH]c(C(=O)N3C[C@H](C(F)(F)F)C[C@H]3C(=O)N[C@@H](C[C@@H]3CCCNC3=O)C(=O)CO)cc12 [Compound 45] | > 100 | 0.1 to 1 | > 100 | 0.02 to 0.2 | < 1 | 1 to 10 | 2 to 20 | ≥ 10 | > 10 |  |  |  | 
COc1cccc2[nH]c(C(=O)N3C[C@]4(C[C@H]3C(=O)NC(C[C@@H]3CCCNC3=O)C(=O)C(N)=O)CC4(F)F)cc12 (stereo partly drawn) [Compound 46, (3S,6S)—N-(4-amino-3,4-dioxo-1-((S)-2-oxopiperidin-3-yl)butan-2-yl)-1,1-difluoro-5-(4-methoxy-1H-indole-2-carbonyl)-5-azaspiro[2.4]heptane-6-carboxamide] | > 10 | 10 to 100 | > 100 | 0.02 to 0.2 | 10 to 100 | 10 to 100 | 0.2 to 2 | 1 to 10 | > 10 |  |  |  | 
COc1cccc2[nH]c(C(=O)N3C[C@]4(C[C@H]3C(=O)N[C@@H](C[C@@H]3CCCNC3=O)C(=O)CO)CC4(F)F)cc12 [Compound 47, (3S,6S)-1,1-difluoro-N-[(2S)-4-hydroxy-3-oxo-1-[(3S)-2-oxopiperidin-3-yl]butan-2-yl]-5-(4-methoxy-1H-indole-2-carbonyl)-5-azaspiro[2.4]heptane-6-carboxamide] | > 100 | 0.1 to 1 | > 100 | 0.02 to 0.2 | 1 to 10 | 1 to 10 | 2 to 20 | ≥ 10 | > 10 |  |  |  | 
COc1cccc2[nH]c(C(=O)N3C[C@]4(C[C@H]3C(=O)N[C@@H](C[C@@H]3CCCNC3=O)C(=O)COCc3ccccc3)CC4(F)F)cc12 [Compound 47A, (3S,6S)—N-[(2S)-4-(benzyloxy)-3-oxo-1-[(3S)-2-oxopiperidin-3-yl]butan-2-yl]-1,1-difluoro-5-(4-methoxy-1H-indole-2-carbonyl)-5-azaspiro[2.4]heptane-6-carboxamide] | > 10 | < 0.1 | > 100 | 0.02 to 0.2 | 1 to 10 | 1 to 10 | 2 to 20 | ≥ 10 | > 10 |  |  |  | 
CC(C)[C@@H]1C[C@@H](C(=O)NC(C[C@@H]2CCNC2=O)C(=O)C(=O)NCc2ccccc2)N(C(=O)c2cc3ccccc3[nH]2)C1 (stereo partly drawn) [Compound 48, N-benzyl-3-{[(2S,4S)-1-(1H-indole-2-carbonyl)-4-isopropylpyrrolidin-2-yl]formamido}-2-oxo-4-[(3S)-2-oxopyrrolidin-3-yl]butanamide] | > 10 | 0.1 to 1 | > 100 | 0.2 to 2 | 1 to 10 | 1 to 10 | 2 to 20 | 0.1 to 1 | > 10 |  |  |  | 
COc1cccc2[nH]c(C(=O)N3C[C@H]4[C@@H]([C@H]3C(=O)N[C@@H](C[C@@H]3CCCNC3=O)C(=O)CO)C4(C)C)cc12 [Compound 49, (1R,2S,5S)—N-[(2S)-4-hydroxy-3-oxo-1-[(3S)-2-oxopiperidin-3-yl]butan-2-yl]-3-(4-methoxy-1H-indole-2-carbonyl)-6,6-dimethyl-3-azabicyclo[3.1.0]hexane-2-carboxamide] | > 100 | 0.1 to 1 | > 100 | < 0.02 | 1 to 10 | 1 to 10 |  |  | > 10 | > 10 |  |  | > 3.3
